Laboratory results published in PMC10573175 (International Journal of Molecular Sciences, 2023).

Columns and labels:
[1] = target: T1, human serum albumin (HSA) (Homo sapiens, UniProt P02768); experiment: Effect of paracetamol on HSA–ceftazidime binding (fluorescence quenching, Lineweaver–Burk analysis); settings: for KSV: 25 °C
Method: (§1) UV-visible studies were performed on a Perkin Elmer Lambda 45 spectrophotometer (Germany) within the range of 200 nm to 500 nm as required. Intrinsic fluorescence measurements were performed on a Hitachi F 7000 spectrofluorometer (Japan) equipped with the programmable temperature controller. The excitation and emission slit widths were adjusted to 5 nm with a PMT voltage of 500 V. Circular dichroism (CD) spectrophotometric recordings were obtained with a Jasco J-815 spectropolarimeter (Japan) using a quartz cuvette of […]. The studies were carried out in the 20 mM tris buffer of pH 7.4 and at 25 °C unless stated otherwise. Autodock 4.2 [36] was used to perform molecular docking and MD simulations were performed through GROMACS 2021.3 [37] with the utilization of the CHARMM force field for a production run of 100 ns. The detailed methodology is given in the Supplementary Materials.

[2] = target: T1, human serum albumin (HSA); experiment: Intrinsic fluorescence quenching of HSA by ceftazidime (Stern–Volmer, modified Stern–Volmer, Van't Hoff analysis); type: binding; settings: for KSV (Stern–Volmer quenching constant): 20 mM tris buffer pH 7.4, excitation 295 nm; for ΔG (free energy change of binding): Van't Hoff
Text: The intrinsic fluorescence of HSA is mainly contributed by a single tryptophan residue, which can be excited at 295 nm to give the maximum fluorescence emission at 340 nm. […] The corrected fluorescence data are used to further analyze the results given in the next section.
The fluorescence quenching is the result of either stable complex formation between fluorophore and the quencher or there is a collisional encounter between them. The first phenomenon is termed as static quenching, while the second one is known as dynamic quenching. […] The involvement of the quenching mechanism, either static or dynamic, can be understood with the help of temperature variation. Dynamic quenching increases in increasing the temperature while static quenching constant decreases in such a case.
The binding constant (Kb) and number of binding sites (n) can also be estimated using the modified Stern–Volmer equation as:(2) logF0−F/F=logKb+nlog[Q].
Van’t Hoff equations (given in Equations (S2) and (S3)) can be used to evaluate the thermodynamic parameters such as the free energy change (ΔG), enthalpy change (ΔH), and entropy change (ΔS) of a process using the values of physical parameters at equilibrium. Herein, we used the binding constant, Kb, at three different temperatures to fit into the Equation (S1) to obtain the values of ΔH from the slope and ΔS from the intercept of the plot of ln Kb vs. 1/T (Figure 5A), which are given in Table 1. The values of ΔH and ΔS were, further, used to calculate ΔG. From the evaluation of thermodynamic parameters, involvement of the major forces in the binding can be understood along with the feasibility of the interaction. According a to report published by Ross and Subramanian, hydrogen bonding interactions dominate when the values of ΔH and ΔS are negative, whereas positive values of these parameters can be observed in case of hydrophobic interactions.
as §1, with “Materials. […]” for “Materials.”

HSA = HSA (Homo sapiens, UniProt P02768); experiment: Far-UV circular dichroism spectroscopy of HSA with ceftazidime; settings: far-UV CD, dependent on drug concentration
Method: as §1
Non-steroidal anti-inflammatory drug effect on the binding of p lasma […]
on Perkin-Elmer Lambda 45 Spectrophotometer equipped with autosampler and water-
bath with temperature controller. Quartz cuvettes of 1 cm path length were used for the
Fluorescence measurements were performed on Hitachi spectrofluorometer (Model […]
fluorescence spectra were collected at 25 °C with a cell of path length 1 cm. […]
and emission slits were set at 5 nm. Intrinsic fluorescence was measured by exciting […]

[3] = target: T1, human serum albumin (HSA); experiment: Competitive binding site assay with site markers warfarin, ibuprofen and hemin (fluorescence quenching); settings: for KSV: 25 °C
Text: DS1 is located in subdomain IIA, while DS2 is located in subdomain IIIA. There are several molecules that have the specific affinities towards these binding sites; for instance, warfarin binds strongly at DS1 and ibuprofen binds at DS2 [12]. There is another binding site within HSA, which is also known as fatty acid binding site 1, located in subdomain IB, which has a precise affinity for hemin [12]. Therefore, these molecules could be considered as the specific site markers for these sites and can be used to see the competitive binding between the molecule under consideration. […] The corresponding quenching and binding plots are given in Figure 7A,B and the calculated values of quenching and binding constants are shown in Table 2. […] To obtain more understanding on the binding site, we performed computational studies using molecular docking and molecular dynamics simulations, which will be described in the next sub-sections.
as §1

[4] = Van't Hoff plot of ln Kb vs. 1/T, 25–45 °C

T1 sequence (P02768 25-609): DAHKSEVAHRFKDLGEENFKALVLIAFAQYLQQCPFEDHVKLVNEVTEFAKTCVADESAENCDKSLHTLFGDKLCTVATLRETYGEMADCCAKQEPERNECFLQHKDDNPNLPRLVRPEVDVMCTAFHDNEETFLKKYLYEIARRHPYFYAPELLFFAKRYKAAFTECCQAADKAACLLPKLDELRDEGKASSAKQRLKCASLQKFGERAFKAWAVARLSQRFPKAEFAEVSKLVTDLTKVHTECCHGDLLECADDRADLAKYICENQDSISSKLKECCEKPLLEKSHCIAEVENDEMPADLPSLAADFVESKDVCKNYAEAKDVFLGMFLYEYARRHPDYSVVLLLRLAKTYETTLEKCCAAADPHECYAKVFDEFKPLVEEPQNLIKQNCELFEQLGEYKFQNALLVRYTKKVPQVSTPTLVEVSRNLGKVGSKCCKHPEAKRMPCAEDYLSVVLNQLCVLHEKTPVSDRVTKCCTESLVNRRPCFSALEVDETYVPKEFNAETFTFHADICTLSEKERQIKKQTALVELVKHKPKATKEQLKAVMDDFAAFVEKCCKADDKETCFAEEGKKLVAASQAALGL
HSA, sequence (P02768 25-609): as above

In the case of CC(=O)Nc1ccc(O)cc1 [Paracetamol, paracetamol], the “type of inhibition of HSA–ceftazidime binding” value ([1]; Lineweaver–Burk plots) is reported as “non-competitive”.
With CC(C)(O/N=C(\C(=O)N[C@@H]1C(=O)N2C(C(=O)[O-])=C(C[n+]3ccccc3)CS[C@H]12)c1csc(N)n1)C(=O)O [Ceftazidime] the KSV ([1]; in the presence of 50 µM paracetamol) was 2.2 × 10^3 M^–1, the KSV ([1]; in the presence of 100 µM paracetamol) was 1.8 × 10^3 M^–1 and the KSV ([1]; in the presence of 150 µM paracetamol) was 1.7 × 10^3 M^–1. For the same molecule, the KSV ([1]; in the presence of 250 µM paracetamol) was 1.6 × 10^3 M^–1, the KSV ([1]; in the presence of 500 µM paracetamol) was 1.3 × 10^3 M^–1 and the “n (number of binding sites)” value ([2]; 25 °C) was 0.96. The “KSV (Stern–Volmer quenching constant)” value ([2]; 25 °C) was 2.3 × 10^3 M^–1, the “ΔG (free energy change of binding)” value ([2]; 25 °C) was -4.4 kcal/mol and the “n (number of binding sites)” value ([2]; 35 °C) was 1.01. For the same molecule, the “KSV (Stern–Volmer quenching constant)” value ([2]; 35 °C) was 2.6 × 10^3 M^–1, the “ΔG (free energy change of binding)” value ([2]; 35 °C) was -4.95 kcal/mol and the “n (number of binding sites)” value ([2]; 45 °C) was 1.09. For the same molecule, the “KSV (Stern–Volmer quenching constant)” value ([2]; 45 °C) was 3.2 × 10^3 M^–1, the “ΔG (free energy change of binding)” value ([2]; 45 °C) was -5.5 kcal/mol and the quenching mechanism ([2]; KSV increased on increasing the temperature) was “dynamic quenching mechanism”. For the same molecule, the “ΔH (enthalpy change of binding)” value [2, 4] was 11.8 kcal/mol, the “ΔS (entropy change of binding)” value [2, 4] was 227.8 J mol^−1 K^−1 and the “effect on secondary structure of HSA” value (HSA) was “partial unfolding of the protein”. For the same molecule, the KSV ([3]; in the presence of hemin (site marker subdomain IB)) was 1.3 × 10^3 M^–1, the KSV ([3]; in the presence of ibuprofen (site marker DS2)) was 2.3 × 10^3 M^–1 and the KSV ([3]; in the presence of warfarin (site marker DS1)) was 1.7 × 10^3 M^–1. The “preferred binding site within HSA” value ([3]; site markers and docking) was “subdomain IB”.
